In patent US20250084091A1, “INHIBITORS OF SARS-COV-2” (The Texas A&M University System, priority 2021, published 2025):

Target: SARS-CoV-2 main protease (Mpro) (Severe acute respiratory syndrome coronavirus 2, UniProt P0DTD1)
Test: biochemical
Details: for IC50: Table 2, read-out: Enzyme IC50; for inhibition at 20 µM: read-out: Enzyme inhibition @ 20 uM

Row | SMILES | IC50 [nM] | inhibition at 20 µM [%]
1 | Cc1cncc(C(=O)N2CCC(=C(c3ccccc3)c3ccncc3)CC2)c1 [MKP-1398, (5-methylpyridin-3-yl)(4-(phenyl(pyridin-4-yl)methylene)piperidin-1-yl)methanone] | 580 | –
2 | CC(C)(C)OC(=O)NCc1cncc(C(=O)N2CCN(C(c3ccccc3)c3ccccc3)CC2)c1 [PKJ-703, tert-butyl ((5-(4-benzhydrylpiperazine-1-carbonyl)pyridin-3-yl)methyl)carbamate] | 930 | –
3 | O=C(c1cnccn1)N1CCN(C(c2ccccc2)c2cccnc2)CC1 (stereo not drawn) [MKP-1188, 2-{4-[phenyl(pyridin-3-yl)methyl]piperazine-1-carbonyl}pyrazine] | – | 50
4 | Cc1cncc(C(=O)N2CCC(=C(c3ccccc3)c3cccc(F)c3)CC2)c1 [MKP-1360, (4-((3-fluorophenyl)(phenyl)methylene)piperidin-1-yl)(5-methylpyridin-3-yl)methanone] | 35 | –
5 | Cc1cncc(C(=O)N2CCC(=C(c3cccc(F)c3)c3cccc(F)c3)CC2)c1 [MKP-1349, (4-(bis(3-fluorophenyl)methylene)piperidin-1-yl)(5-methylpyridin-3-yl)methanone] | 42 | –
6 | Cc1cc(C(=O)N2CCN(C3c4ccccc4CS(=O)(=O)c4ccccc43)CC2)cnc1N (stereo not drawn) [NZ-819, (6-amino-5-methyl-3-pyridyl)-[4-(5,5-dioxo-6,11-dihydrobenzo[c][1]benzothiepin-11-yl)piperazin-1-yl]methanone] | 20000 | –
7 | Cc1cncc(C(=O)N2CCN(C(c3ccccc3)c3ccccn3)CC2)c1 (stereo not drawn) [MKP-1416, (5-methylpyridin-3-yl)(4-(phenyl(pyridin-2-yl)methyl)piperazin-1-yl)methanone] | 176 | –
8 | O=C1CN(C(=O)N2CCN(C3c4ccccc4CS(=O)(=O)c4ccccc43)CC2)c2ccccc2N1 (stereo not drawn) [NZ-812, 4-[4-(5,5-dioxo-6,11-dihydrobenzo[c][1]benzothiepin-11-yl)piperazine-1-carbonyl]-1,3-dihydroquinoxalin-2-one] | 550 | –
9 | Cc1cncc(C(=O)N2CCN(C(c3ccccc3)c3ccncc3)CC2)c1 (stereo not drawn) [MKP-1442, (5-methylpyridin-3-yl)(4-(phenyl(pyridin-4-yl)methyl)piperazin-1-yl)methanone] | 1600 | –
10 | Cc1cncc(C(=O)N2CCC(=C(c3ccccn3)c3ccccn3)CC2)c1 [MKP-1422, (4-(di(pyridin-2-yl)methylene)piperidin-1-yl)(5-methylpyridin-3-yl)methanone] | 110 | –
11 | COc1cccc(C(c2ccccc2)N2CCN(C(=O)c3cncc(Cl)c3)CC2)c1 (stereo not drawn) [MKP-1205, 1-(5-chloropyridine-3-carbonyl)-4-[(3-methoxyphenyl)(phenyl)methyl] piperazine] | 550 | –
12 | Cc1cncc(C(=O)N2CCC(=C(c3ccc(F)cc3)c3cccc(F)c3)CC2)c1 [MKP-1359, (4-((3-fluorophenyl)(4-fluorophenyl)methylene)piperidin-1-yl)(5-methylpyridin-3-yl)methanone] | 44 | –
13 | O=C(c1cnccc1Cl)N1CCN(C2c3ccccc3CCc3ccccc32)CC1 [ZS-331, (4-chloro-3-pyridyl)-[4-(2-tricyclo[9.4.0.03,8]pentadeca-1(11),3(8),4,6,12,14-hexaenyl)piperazin-1-yl]methanone] | 370 | –
14 | NCc1cncc(C(=O)N2CCN(C(c3ccccc3)c3ccccc3)CC2)c1 [PKJ-704, (5-(aminomethyl)pyridin-3-yl)(4-benzhydrylpiperazin-1-yl)methanone] | 1600 | –
15 | O=C(C1CNCCO1)N1CCN(C(c2ccccc2)c2ccccc2)CC1 (stereo not drawn) [AA-582, (4-benzhydrylpiperazin-1-yl)(morpholin-2-yl)methanone] | – | 60
16 | Cc1cncc(C(=O)N2CCC(=C(c3ccccc3)c3ccccn3)CC2)c1 [MKP-1400, (5-methylpyridin-3-yl)(4-(phenyl(pyridin-2-yl)methylene)piperidin-1-yl)methanone] | 74 | –
17 | CC(=O)Nc1ncc(C(=O)N2CCN(C3c4ccccc4CS(=O)(=O)c4ccccc43)CC2)cc1C (stereo not drawn) [NZ-820, N-[5-[4-(5,5-dioxo-6,11-dihydrobenzo[c][1]benzothiepin-11-yl)piperazine-1-carbonyl]-3-methyl-2-pyridyl]acetamide] | > 80000 | –
18 | Cc1cncc(C(=O)N2CCC(=C(c3ccccc3)C3CCCCC3)CC2)c1 [MKP-1421, (4-(cyclohexyl(phenyl)methylene)piperidin-1-yl)(5-methylpyridin-3-yl)methanone] | 920 | –
19 | O=C(c1cncc2cc[nH]c12)N1CCC(=C(c2cccc(O)c2)c2cccc(O)c2)CC1 [MKP-1410, (4-(bis(3-hydroxyphenyl)methylene)piperidin-1-yl)(1H-pyrrolo[3,2-c]pyridin-7-yl)methanone] | 41 | –
20 | O=C(c1cncc(Br)c1)N1CCN(C(c2ccccc2)c2cccnc2)CC1 (stereo not drawn) [MKP-1200, 1-(5-bromopyridine-3-carbonyl)-4-[phenyl(pyridin-3-yl)methyl]piperazine] | 320 | –
21 | Cc1cncc(C(=O)N2CCC(=C(c3cccnc3)c3cccc(O)c3)CC2)c1 [MKP-1392, (4-((3-hydroxyphenyl)(pyridin-3-yl)methylene)piperidin-1-yl)(5-methylpyridin-3-yl)methanone] | 93 | –
22 | CS(=O)(=O)c1ccccc1C(c1ccccc1)N1CCN(C(=O)c2cncc3cc[nH]c23)CC1 (stereo not drawn) [NZ-814, [4-[(2-methylsulfonylphenyl)-phenyl-methyl]piperazin-1-yl]-(1H-pyrrolo[3,2-c]pyridin-7-yl)methanone] | 53 | –
23 | O=C(c1cncnc1)N1CCN(C(c2ccccc2)c2cccnc2)CC1 (stereo not drawn) [MKP-1189, 5-{4-[phenyl(pyridin-3-yl)methyl]piperazine-1-carbonyl}pyrimidine] | – | 60
24 | O=C(c1cncc2cc[nH]c12)N1CCC(N(c2ccccc2)c2ccccc2)CC1 [AA-667, [4-(N-phenylanilino)-1-piperidyl]-(1H-pyrrolo[3,2-c]pyridin-7-yl)methanone] | 3320 | –
25 | Cc1cncc(C(=O)N2CCN(C(c3cccc(F)c3)c3ccccc3S(C)(=O)=O)CC2)c1 (stereo not drawn) [NZ-817, [4-[(3-fluorophenyl)-(2-methylsulfonylphenyl)methyl]piperazin-1-yl]-(5-methyl-3-pyridyl)methanone] | 33 | –
26 | COc1cccc(C(c2ccccc2)N2CCN(C(=O)c3cccnc3)CC2)c1 (stereo not drawn) [MKP-1203, 1-[(3-methoxyphenyl)(phenyl)methyl]-4-(pyridine-3-carbonyl)piperazine] | 2800 | –
27 | O=C1Nc2ccc(F)cc2C1CC(=O)N1CCN(C(c2ccccc2)c2ccccc2)CC1 (stereo not drawn) [PKJ-663, 3-(2-(4-benzhydrylpiperazin-1-yl)-2-oxoethyl)-5-fluoroindolin-2-one] | > 80000 | –
28 | Cc1cncc(C(=O)C2CCN(C(c3ccccc3)c3ccccc3)CC2=O)c1 (stereo not drawn) [PKJ-672, 1-benzhydryl-4-(5-methylnicotinoyl)piperidin-3-one] | 760 | –
29 | Cc1cncc(C(=O)N2CCC(=C(c3cccc(O)c3)c3cccc(O)c3)CC2)c1 [MKP-1381, (4-(bis(3-hydroxyphenyl)methylene)piperidin-1-yl)(5-methylpyridin-3-yl)methanone] | 94 | –
30 | Cc1cncc(C(=O)N2CCC(N(c3cccc(F)c3)c3cccc(F)c3)CC2)c1 [MKP-1404, (4-(bis(3-fluorophenyl)amino)piperidin-1-yl)(5-methylpyridin-3-yl)methanone] | 2660 | –
